# From US6495131B1, “Interleukin-3 gene therapy for cancer” (priority 1998, dated 2002)
# System: ROS-1 osteosarcoma
# Assay: Tumor growth of ROS-1 osteosarcoma in hindlimb after ILP or intra-tumoral injection
# Format: in vivo
# Conditions: ROS-1, ILP 15 minutes, 1.10^9 iu vector plus 50 μg TNFα, 40 μg melphalan or 200 μg doxorubicin per rat
# Experimental: The rapidly growing ROS-1 osteosarcoma originated spontaneously in the tibia of a Wag/Rij rat (Barendsen et al. (1987)). The ROS-1 was implanted subcutaneously in the flank of donor Wag/Rij rats and passaged serially. The ROS-1 has a tumor doubling time of 5 days.
# Fragments of the BN175 or ROS-1 (osteo)sarcoma were subcutaneously implanted into the right hindlimb of the experimental animals just above the ankle. The tumor size was measured regularly by caliper measurement in two dimensions. When the tumor reached a volume of 180-524 mm^3 (diameter between 7 and 10 mm) an isolated limb perfusion (ILP) with the recombinant adenoviral vector was performed. As a control, tumor bearing rats underwent ILP without the addition of said recombinant adenoviral vectors (termed sham ILP). An other group of tumor bearing rats underwent a direct intra-tumor injection with said recombinant adenoviral vector. The tumor volume was between 180-524 mm^3). After ILP or direct intra-tumor injection the tumor size was measured every (mon-fri)day.
# Surgical procedures were performed under Hypnorm anaesthesia. […] After an incision parallel to the inguinal ligament the femoral and vein were approached and cannulated with silastic tubing (0.30 mm ID, 0.64 mm OD; 0.64 mm, 1.19 OD, respectively, Degania Silicone, Degania Bet, Israel). Collaterals were temporarily occluded by the application of a tourniquet around the groin, which was fixed to the inguinal ligament. An oxygenation reservoir and a roller pump (Masterflex) were included in the vascularly isolated circuit, which was, initially, perfused with haemaccel (Behring Pharma, Amsterdam, The Netherlands) for 3 minutes at a flow speed of 2 ml/min to wash out the blood. After the first wash out step, recirculation was performed with recombinant adenoviruses (50 μl-1 ml, containing approximately 10^9 infectious units (i.u.)) dissolved in 2.5-3.5 ml Haemaccel at the same flow rate for a time period ranging from 5 to 30 minutes. Followed by a second perfusion step of 5 minutes to wash out the non-bound virus with Haemaccel. […]
row,Compound,effect of addition to the IG.Ad.CMV.rIL-3 perfusion on the antitumor response
1,N[C@@H](Cc1ccc(N(CCCl)CCCl)cc1)C(=O)O [melphalan],does not influence the antitumor response
2,COc1cccc2c1C(=O)c1c(O)c3c(c(O)c1C2=O)C[C@@](O)(C(=O)CO)C[C@@H]3O[C@H]1C[C@H](N)[C@H](O)[C@H](C)O1 [doxorubicin],does not influence the antitumor response
3,TNFα,does not influence the antitumor response
